These results are taken from PubChem BioAssay (NCI).

The GI50 is the concentration that inhibits growth by half. The TGI is the concentration giving total growth inhibition. A lower TGI goes with greater sensitivity of the cells.

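1) Cells in 96-well plates. 2) Compound, 48 h, 5 concentrations. 3) Linear interpolation between surrounding doses. 4) Unreached endpoint = highest concentration. Here, GI50 denotes the concentration required for 50% inhibition of growth. TGI is the concentration that stops growth completely.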 Some results are limits rather than exact numbers.

What all share (test): DTP human tumour cell line panel, 48 h
Test [1] concerns SK-MEL-28 melanoma.
The test system of test [2] is UACC-257 melanoma.
The test system of test [3] is A549 NSCLC.
Test [4] deals with NCI-H23 lung.
Test [5] relates to SNB-19 CNS.
Test [6] relates to EKVX NSCLC.
The subject of test [7] is OVCAR-5 ovarian.
Test [8] concerns HCT-15 colon.
Test [9] concerns OVCAR-4 ovarian.
In test [10] the test system is RXF 393 renal.

Regarding `OC(c1cc(-c2cccc(Cl)c2)nc2ccccc12)C1CCCCN1` (stereo not drawn), the GI50 in test [1] was 1.81 µM; in [2] it was 1.85 µM; in [3] it was 1.7 µM; in test [4] it was 2.01 µM; in test [5] it was 1.95 µM; in test [6], 1.45 µM. Besides, the GI50 in test [7] is 1.62 µM; in test [8] it was 1.91 µM. Also, the TGI amounted to 3.42 µM in [1]; 3.33 µM in [2]; 3.1 µM in test [3]; 4.2 µM in [4]; 3.95 µM in [5]; 2.94 µM in [6]. The total growth inhibition concentration (TGI) in test [7] came to 3.29 µM; in test [8], 3.91 µM.
For `O=C(COc1ccc(/C=C2\COc3ccccc3C2=O)cc1)Nc1nccs1`, the GI50 in [1] is 13.2 µM; in test [2], 13.3 µM; in test [3], 14.3 µM; in test [9], 20.5 µM; in [4], 11.2 µM; in test [5], 12.8 µM. In addition, the GI50 in test [6] is 22.4 µM; in test [7], 16.7 µM; in test [8] it was 5.05 µM. Also, the TGI is 26.1 µM in [1]; 30.6 µM in test [2]; 47.4 µM in test [3]; 68.5 µM in [9]; 25.4 µM in [4]; 25.4 µM in test [5]. Besides, the concentration for total growth inhibition (TGI) in test [6] amounted to 76.3 µM; in [7] it was 32.9 µM; in test [8] it was 23.8 µM.
Take `COc1c(C)cc(O)cc1C=O`: the total growth inhibition concentration (TGI) in test [1], in test [2], in [3], in test [9], in test [5] and in test [6] was more than 100 µM in each case. Besides, the TGI in test [7], in [8] and in [10] was more than 100 µM in each case.
As for `COc1cc(/C=C2\C[C@H]3[C@@H]4CC=C5C[C@@H](O)CC[C@]5(C)[C@H]4CC[C@]3(C)[C@H]2O)ccc1OCCN1CCCC1`, the GI50 was 9.89 µM in test [2]; 10.9 µM in [3]; 11.5 µM in test [4]; 11.8 µM in test [5]; 0.104 µM in [6]; 8.57 µM in test [7]. The GI50 in test [8] was 11.8 µM; in test [10], 9.81 µM. Moreover, the concentration for total growth inhibition (TGI) in test [2] was found to be 19.8 µM; in [3], 21.6 µM; in test [4] it was 26 µM; in [5], 31.3 µM; in test [6], 7.38 µM; in test [7], 19.8 µM. For the same molecule, the values for the TGI in test [8] and in [10] were 38 µM and 23.9 µM, respectively.
Take `c1ccc([CH2][Sn]([CH2]c2ccccc2)([O]c2cccc3cccnc23)[O]c2cccc3cccnc23)cc1`: the GI50 in test [1] is 0.193 µM; in test [2], 0.302 µM; in test [3], 0.245 µM; in test [9] it was 0.184 µM; in test [4] it was 0.508 µM; in test [5], 1.15 µM. Besides, the values for the GI50 in test [6], in test [7] and in test [8] were 0.741 µM, 0.338 µM and 0.394 µM, respectively. The TGI in test [1] was 0.963 µM; in [2], 0.836 µM; in test [3], 0.69 µM; in test [9], 0.374 µM; in test [4], 1.84 µM; in test [5], 2.49 µM. For the same molecule, the total growth inhibition concentration (TGI) in test [6] was found to be 1.99 µM; in test [7] it was 1.06 µM; in [8], 1.37 µM.
For the molecule `COC(=O)C(Cc1nc2ccccc2[nH]c1=O)/C(=N\NC(C)(C)C)C(=O)Nc1c(C)cc(Br)cc1C` (stereo not drawn), the TGI is 51.8 µM in [1]; more than 100 µM in [2]; more than 100 µM in test [3]; more than 100 µM in test [9]; 78 µM in test [4]; more than 100 µM in [5]. The TGI in test [6] was more than 100 µM; in [7], more than 100 µM; in test [8] it was 48.2 µM.
Consider `COc1c(O)c(OC)c2oc(-c3ccc(O)c(O)c3)c(OC)c(=O)c2c1O`, for which the TGI in test [1], in test [2], in [3], in test [9], in test [4] and in test [5] was more than 100 µM each time. Further, the concentration for total growth inhibition (TGI) in [6] was 94 µM; in [7], more than 100 µM; in test [8], more than 100 µM.
In the case of `CCOC(=O)c1ccc(Nc2sc(C(=O)c3ccc(Br)cc3)c(N)c2C#N)cc1`, the GI50 was 4.81 µM in [1]; 6.19 µM in test [2]; 1.06 µM in test [3]; 14.3 µM in [4]; 7.18 µM in [5]; 5.66 µM in [7]. The GI50 in test [8] is 0.662 µM; in test [10] it was 1.78 µM. The TGI in [1], in [2], in test [3], in [9], in test [4] and in test [5] was more than 100 µM in each case. In addition, the TGI in test [7], in [8] and in test [10] was more than 100 µM throughout.
As to `Nc1c(-c2cn(Cc3ccccc3)c3ccccc23)[n+]([O-])c2ccccc2[n+]1[O-]`, the concentration for total growth inhibition (TGI) is 91.8 µM in test [1]; 35.5 µM in test [2]; more than 100 µM in test [3]; more than 100 µM in test [9]; 93.6 µM in test [4]; more than 100 µM in test [5]. Besides, the TGI in test [6], in test [7] and in test [8] was more than 100 µM throughout.
For the molecule `COc1ccc(OC(C)=O)c2c1CCC=CC2=O`, the concentration for total growth inhibition (TGI) in test [1] is 28.6 µM; in test [2] it was 31.8 µM; in test [3], 35.4 µM; in [9], 36.1 µM; in test [4], 32.8 µM; in test [5] it was 31.4 µM. Besides, the TGI stood at 31 µM in test [7], 30.1 µM in [8] and 21.6 µM in test [10].
As for `CN(C)c1ccc(/C=C/c2ccnc3c(O)cccc23)cc1`, the GI50 in [1] was 0.624 µM; in test [2] it was 0.409 µM; in [3], 0.376 µM; in [9] it was 0.404 µM; in [4] it was 0.511 µM; in test [5] it was 0.395 µM. For the same molecule, the GI50 is 6.66 µM in test [7], 0.335 µM in test [8] and 0.813 µM in test [10]. Further, the concentration for total growth inhibition (TGI) in test [1] is more than 100 µM; in test [2] it was 3.08 µM; in test [3], more than 100 µM; in [9], more than 100 µM; in test [4], more than 100 µM; in test [5], more than 100 µM. The concentration for total growth inhibition (TGI) in test [7] was more than 100 µM; in [8], more than 100 µM; in test [10] it was 15.1 µM.
